Reference: patent publication US8524781B2, “Organosulfur compounds, a method of making organosulfur compounds and their use for inhibiting the growth of tumour cells” (University of Cape Town, priority 2008, dated 2013)
Like-named read-outs stand apart in the source and are kept apart here.

Assays:
Type in all cases: cell-based
CT-1 cells = assay: MTT assay, inhibition of cell growth of CT-1 cells; conditions: CT-1 transformed WI38 fibroblasts, 48 hours incubation, read-out: CT1 IC50
Protocol: (§1) The compounds were evaluated for their in vitro ability to inhibit cell growth of cultured tumour cells using the 3-(4,5-dimethylthiazol-2-yl)-2,5-diphenyltetrazolium bromide (MTT) assay. These cell types include:
2. CT-1 cells which are transformed WI38 fibroblasts;
(§2) One oesophageal squamous cell carcinoma cell line WHCO1 originally established from surgical biopsies of primary oesophageal squamous cell carcinomas, a transformed fibroblast cell line CT-1 or human breast epithelial cells MDA-MB-231 were cultured in DMEM containing 10% foetal calf serum and 1% penicillin and streptomycin at 37° C. in a humidified atmosphere of 5% CO2. For the MTT assay, 3×10^3 cells were plated in 96-well plates in 90 μL DMEM per well. Compounds solubilized in DMEM+1% DMSO (10 μl) were added to cells and DMEM+1% DMSO, (10 μl) alone was added to the control to give a final concentration of 0-200 μM compound and 0.1% DMSO. After 48 hours incubation period, 10 μL of the MTT labelling reagent (final concentration 0.45 mg/ml) was added to each well and incubated for 4 hours in a humidified atmosphere at 37° C. One hundred micro litres of the solubilization solution was added to each well and the plates were incubated overnight at 37° C. The spectrophotometric absorbance of the wells was measured at 595 nm using a microtiter plate reader.

MDA-MB-231 cells = assay: MTT assay, inhibition of cell growth of MDA-MB-231 cells; conditions: MDA-MB-231 human breast epithelial cancer cells, 48 hours incubation
Protocol: as §1
5. MDA-MB-231 cells which are human breast epithelial cancer cells; and
as §2

WHCO1 cells = assay: MTT assay, inhibition of cell growth of WHCO1 cells; conditions: for IC50: WHCO1 oesophageal epithelial cancer cells, MTT, 48 hours incubation
Protocol: as §1
3. WHCO1 cells which are oesophageal epithelial cancer cells; and
as §2

`C=CCSS/C=C/C[S+]([O-])CCC` (mixture of isomers) [Compound E-3, (E/Z)-4,5,9-trithiadodeca-1,6-diene-9-oxide] was tested, and the IC50 (CT-1 cells; Homo sapiens, WI-38, 48 h) was 26.7 µM, the IC50 (MDA-MB-231 cells) was 25.9 µM and the IC50 (WHCO1 cells; WHCO1, 48 h) was 35.8 µM.

Work on `C=CCSSC=CC[S+]([O-])CCCO` (mixture of isomers) [Compound E-4, (E/Z)-4,8,9-trithiadodeca-6,11-diene-1-ol-4-oxide] yielded an IC50 (CT-1 cells) of 23.1 µM and an IC50 (WHCO1 cells) of 26.8 µM.

`C=CCSSC=CC[S+]([O-])CCCN1C(=O)c2ccccc2C1=O` (mixture of isomers) [Compound E-5, (E/Z)-12-phthalimido-4,5,9-trithiadodeca-1,6-diene-9-oxide] was tested, and the IC50 (CT-1 cells) was 95.9 µM and the IC50 (WHCO1 cells) was 68.9 µM.

In the case of `C=CCSSC=CC[S+]([O-])CCCOCc1ccc(OC)cc1` (mixture of isomers) [Compound E-9, (E/Z)-12-(p-methoxybenzyloxy)-4,5,9-trithiadodeca-1,6-diene-9-oxide], the IC50 (CT-1 cells) is reported as 23.5 µM and the IC50 (WHCO1 cells) is reported as 19.1 µM.

Work on `CCCSSC=CC[S+]([O-])CCC` (mixture of isomers) [Compound E-14, (E/Z)-4,5,9-trithiadodeca-6-ene-9-oxide] yielded an IC50 (CT-1 cells) of 9.32 µM and an IC50 (WHCO1 cells) of 33.8 µM.

`CCC[S+]([O-])CC=CSSC` (mixture of isomers) [Compound E-15, (E/Z)-2,3,7-trithiadeca-4-ene-7-oxide] gave an IC50 (CT-1 cells) of 10.3 µM and an IC50 (WHCO1 cells) of 47.4 µM.

`C=CCSS/C=C\C[S+]([O-])CCC` (mixture of isomers) [Compound Z-3, (E/Z)-4,5,9-trithiadodeca-1,6-diene-9-oxide] gave an IC50 (CT-1 cells; Homo sapiens, WI-38, 48 h) of 17 µM, an IC50 (MDA-MB-231 cells) of 19.2 µM and an IC50 (WHCO1 cells; WHCO1, 48 h) of 21.6 µM.

Work on `C=CCSSC=CC[S+]([O-])CCCO` (mixture of isomers) [Compound Z-4, (E/Z)-4,8,9-trithiadodeca-6,11-diene-1-ol-4-oxide] yielded an IC50 (CT-1 cells) of 22.8 µM and an IC50 (WHCO1 cells) of 37.9 µM.

Work on `C=CCSSC=CC[S+]([O-])CCCN1C(=O)c2ccccc2C1=O` (mixture of isomers) [Compound Z-5, (E/Z)-12-phthalimido-4,5,9-trithiadodeca-1,6-diene-9-oxide] yielded an IC50 (CT-1 cells) of 34.6 µM and an IC50 (WHCO1 cells) of 36 µM.

With `C=CCSSC=CC[S+]([O-])CCCOCc1ccc(OC)cc1` (mixture of isomers) [Compound Z-9, (E/Z)-12-(p-methoxybenzyloxy)-4,5,9-trithiadodeca-1,6-diene-9-oxide] the IC50 (CT-1 cells) was 21.7 µM and the IC50 (WHCO1 cells) was 16.9 µM.

`C=CCSSC=CC[S+]([O-])C(C)(C)C` (mixture of isomers) [EZ-6, (E/Z)-10,10-dimethyl-4,5,9-trithiaundeca-1,6-diene-9-oxide] showed an IC50 (CT-1 cells) of 33.1 µM and an IC50 (WHCO1 cells) of 25.4 µM.

`C=CCSSC=CC[S+]([O-])Cc1ccccc1` (mixture of isomers) [EZ-7, (E/Z)-10-phenyl-4,5,9-trithiadeca-1,6-diene-9-oxide] showed an IC50 (CT-1 cells; Homo sapiens, WI-38, 48 h) of 16.6 µM and an IC50 (WHCO1 cells; WHCO1, 48 h) of 8.8 µM.

`C=CCSSC=CC[S+]([O-])Cc1ccc(OC)cc1` (mixture of isomers) [EZ-8, (E/Z)-10-(p-methoxyphenyl)-4,5,9-trithiadeca-1,6-diene-9-oxide] showed an IC50 (CT-1 cells; Homo sapiens, WI-38, 48 h) of 11.2 µM, an IC50 (MDA-MB-231 cells) of 6.6 µM and an IC50 (WHCO1 cells; WHCO1, 48 h) of 7.12 µM.

In the case of `COc1ccc(C[S+]([O-])CC=CSSCc2ccc(F)cc2)cc1` (mixture of isomers) [EZ-10, (E/Z)-1-(p-fluorophenyl)-8-(p-methoxyphenyl)-2,3,7-trithiaocta-4-ene-7-oxide], the IC50 (WHCO1 cells) is reported as 13.6 µM.

For `COc1ccc(CSSC=CC[S+]([O-])Cc2ccc(OC)cc2)cc1` (mixture of isomers) [EZ-11, (E/Z)-1-(p-methoxyphenyl)-8-(p-methoxyphenyl)-2,3,7-trithiaocta-4-ene-7-oxide], the IC50 (MDA-MB-231 cells) was 0.82 µM, the IC50 (WHCO1 cells) was 1.34 µM and the “activity relative to ajoene at inhibiting growth of WHCO1 oesophageal cancer cells in vitro” value (WHCO1 cells; compared with ajoene, WHCO1 cells) was “fifteen times more active than ajoene”.

With `COc1ccc(C[S+]([O-])CC=CSSCc2ccccc2)cc1` (mixture of isomers) [EZ-12, (E/Z)-1-phenyl-8-(p-methoxyphenyl)-2,3,7-trithiaocta-4-ene-7-oxide] the IC50 (MDA-MB-231 cells) was 1.19 µM and the IC50 (WHCO1 cells; WHCO1, 48 h) was 3.05 µM.

For `CCC[S+]([O-])CC=CSSCCCNS(=O)(=O)c1cccc2c(N(C)C)cccc12` (mixture of isomers) [EZ-13, (E/Z)-1-(dansylamino)-4,5,9-trithiadodeca-6-ene-9-oxide], the IC50 (CT-1 cells) was 17.7 µM, the IC50 (MDA-MB-231 cells) was 42.6 µM and the IC50 (WHCO1 cells) was 14.2 µM.

`C=CCSS/C=C/C[S+]([O-])CC=C` (stereo not drawn) [E-ajoene, 4,5,9-trithiadodeca-1,6,11-triene-9-oxide, reference compound] gave an IC50 (CT-1 cells; Homo sapiens, WI-38, 48 h) of 17.6 µM and an IC50 (WHCO1 cells; WHCO1, 48 h) of 20.9 µM.

For `C=CCSS/C=C/C[S+]([O-])CC=C` (stereo not drawn) [Z-ajoene, 4,5,9-trithiadodeca-1,6,11-triene-9-oxide, reference compound], the IC50 (CT-1 cells) was 15.5 µM and the IC50 (WHCO1 cells) was 20.5 µM.
